The values that follow come from patent publication US20070270413A1, “Mirtazapine for the treatment of neuropathic pain” (N.V. Organon, priority 2006, published 2007).

In data set [1] the test system is mechanical allodynia induced by ligation of the L5 spinal nerve. Briefly: Chung neuropathic model: mechanical allodynia, paw withdrawal threshold to von Frey filaments. In kind it is in vivo, rat. An excerpt: The Chung Neuropathic Model is an animal model of neuropathic pain. Animals with tight ligation of the L5 spinal nerve develop hyperalgesia and allodynia that can be measured using standard behavioural paradigms. Chung surgery: animals were anaesthetized with isoflurane administered in oxygen. Under sterile conditions, a longitudinal incision (about 5 mm lateral from the midline) was made at the lower lumbar-sacral level, exposing the paraspinal muscles on the left. The paraspinal muscles were then isolated and removed from the L4 spinous process to the sacrum using small blunt scissors. This opened up the space ventrolateral to the articular processes, dorsal to the L6 transverse process, and medial to the ileum. Small roungers were used to remove the L6 transverse process as completely as possible. The L5 spinal nerve was then isolated and tightly ligated. Upon completion of the operation, haemostasis was confirmed and the wound closed in layers using silk sutures and metal clips. Anaesthesia was then discontinued. Animals were kept in a cage with warm bedding until they had completely recovered from anaesthesia. The rats' withdrawal threshold to a mechanical stimulus (calibrated von Frey filaments) was measured (baseline reading). Rats were placed on an elevated (˜40 cm) mesh floor in Perspex boxes and filaments of increasing force (2.6-167 mN) were applied to the plantar surface of the paw using an up and down method (Chaplan et al., 1994). The paw was touched with one of a series of 8 von Frey hairs with logarithmically incremental stiffness. The von Frey hair was presented perpendicular to the plantar surface with sufficient force to cause buckling against the paw, and held for approximately 1-3 seconds. A positive response was noted if the paw was sharply withdrawn. A cut-off of 15 g was selected as the upper limit for testing, since stiffer hairs tend to raise the entire limb rather than buckling, substantially changing the nature of the stimulus. […] Data were expressed as mean±s.e.m. and compared between groups using the Kruskal-Wallis one-way analysis of variance, a non-parametric statistical test. Each of the treatment groups were then compared against the vehicle group, using the non-parametric Dunn's test. The time of maximum effect (Tmax) was calculated.

The test system is the same in data set [2]. Described as above. The class given is in vivo, rat. To be noted: 10 and 30 μmol/kg, 40 min after administration, P<0.05 vs vehicle (Mann Whitney).
The nature of data set [3]: Side effects observed after s.c. dosing in the Chung neuropathic model.
Procedure: Following baseline measurements each animal was anaesthetised and the L5 spinal nerve tightly ligated. The animals were allowed to recover from the surgery for a period of at least five days. On the day of drug administration, the paw withdrawal thresholds were re-measured (0 min). […] Readings were then made at regular intervals after compound injection.

`CN1CCN2c3ncccc3Cc3ccccc3C2C1` (racemic) [Racemic mirtazapine, mirtazapine]: the “Effect on withdrawal threshold” value in data set [1] (10 and 30 μmol/kg, 40 min after administration, not dose-dependent) is “small but significant effect”. In addition, the Withdrawal threshold entry in data set [2] is “up to 4 g”.

Turning to `CN1CCN2c3ncccc3Cc3ccccc3[C@H]2C1` [S(+)-mirtazapine], the Injection site finding entry in data set [3] (120 μmol/kg s.c.) is listed as “necrosis at site of injection”. Further, in data set [3] (120 μmol/kg s.c.), the “Reaction on injection (s.c.)” value is recorded as “vocalisation/struggle on injection”. The “Behaviour when returned to holding cages after testing” value in data set [3] (60 and 120 μmol/kg group) was “hyperactive/excitable behaviour”. Also, the Tmax (time of maximum effect) in data set [1] (0.3 μmol/kg s.c.) is 1 h; in data set [1] (3 μmol/kg s.c.) it was 1 h; in data set [1] (30 μmol/kg s.c., Table 1), 1 h; in data set [1] (60 μmol/kg s.c.), 1 h; in data set [1] (120 μmol/kg s.c.), 1 h. The “Reversal of mechanical allodynia” value in data set [1] (120 μmol/kg s.c.) is 53 % of the baseline. In data set [1] (60 and 120 μmol/kg s.c.), the Anti-allodynic activity entry was “Anti-allodynic activity”. In data set [1] (subcutaneous administration, maleate salt), the “Effect on mechanical allodynia” value is “significantly attenuated”.

In the case of R-mirtazapine [reference compound], the Tmax (time of maximum effect) was found to be 0.5 h in data set [1] (10 μmol/kg s.c., Table 2); 0.5 h in data set [1] (30 μmol/kg s.c., Table 2); 0.5 h in data set [1] (100 μmol/kg s.c., Table 2). Besides, in data set [1] (10-100 μmol/kg s.c., free base), the “Effect on mechanical allodynia” value is “no effect”. In addition, in data set [1] (doses up to 100 μmol/kg s.c.), the Anti-allodynic activity entry is on record as “no effect”.
